We go through 4 compounds from patent US7728146B2, “Enzyme inhibitors” (Probiodrug AG, priority 2006, dated 2010).

Like-named read-outs stand apart in the source and are kept apart here.

Data set [1] has as its system neuroblastoma cell line SY5Y. Nature of the data set: LD50 determination on SY5Y (LDH). The note with it: 8 serial dilutions, highest concentration 1 mM. The format is cell-based.
A short description of data set [2]: Bioavailability studies (pharmacokinetics after oral and intraarterial administration). Format: in vivo, rat. The note with it: for AUC / AUC(0-inf) / AUC(0-t) / Cmax / Tmax / half-life / AUC/Dose: male Wistar rats; for AUC: cross-over design; for AUC(0-inf) / AUC(0-t) / Cmax / Tmax / half-life / AUC/Dose: hydrochloride salt, Mean ± SD; for bioavailability: calculated from Mean AUC p.o. / Mean AUC i.a., read-out: F (bioavailability). Here is the method: Male Wistar rats (N=25; Crl:WI) with a body weight ranging between 300 and 350 g were purchased from Harlan Winkelmann GmbH (Borchen, Germany).
All studycompounds were used in the form of the hydrochloride salt.
One week after adaptation to the housing conditions, catheters were implanted into the carotid artery of the rats under general anaesthesia (i.p. injection of 0.25 mL/kg b.w. Rompun® [2%], BayerVital, Germany and 0.5 mL/kg b.w. Ketamin 10, Atarost GmbH & Co., Twistringen, Germany). The animals were allowed to recover for one week. The catheters were flushed with heparin-saline (100 IU/mL) three times per week.
After overnight fast, the inhibitors were administered the oral route via a feeding tube (15 g, 75 mm; Fine Science Tools, Heidelberg, Germany) and the intraarterial route via the arterial catheter. In case of intraarterial administration, the catheter was immediately flushed with 30 μL saline.
The animals were treated by a single oral dose of 3 mg/kg (5 mL/kg b.w.; treatment A) followed by a wash-out period of at least 3 days before intraarterial administration of 3 mg/kg (2 mL/kg b.w.; treatment B). The compounds were dissolved in saline to a final concentration adequate for an application of 3 mg/kg b.w.
Heparinized blood samples of 170 μL were collected in ice cooled sample tubes at −5, 0 (before medication) and at 5, 15, 30, 45, 60, 120, 240, 360 and 480 min. Blood samples in sample tubes were put shortly on ice and centrifuged thereafter (12,000 rpm for 2 min).
Plasma levels of the DP IV inhibitors were determined by measurement of plasma DP IV activity under standardized conditions using Gly-Pro-pNA as substrate. Plasma levels were calculated from the degree of inhibition using the known inhibition constants and the equation for competitive inhibition.
For determination of plasma DP IV activity, 50 μL sample in an appropriate dilution were incubated with 100 μL Hepes buffer (0.102 M, pH 7.6, I=0.319 M by KCl) and 50 μL water in a 96 well plate. Reaction was started by addition of 50 μL of a 2 mM Gly-Pro-pNA solution. Release of pNA was monitored for 20 min at 30° C. and 405 nm using a GeniousPro plate reader (Tecan). DP IV activity (deltaAbsorbtion/min) was calculated by linear regression of the time response curve. From this activity the concentration of the inhibitor was calculated using the following equation derived from the inhibitor equation for competitive inhibition.
Pharmacokinetic analyses (parameters of the individual PK profiles) and descriptive statistics were carried out using WinNonlin (Version 4.0.1, Professional). Based on plasma concentration data of inhibitors, the following model-independent pharmacokinetic variables were determined:
AUC(0-inf), AUC(0-t), Cmax, tmax, terminal half-life (t1/2) and bioavailability (F).
F (in %) was calculated from the ratio of observed AUC upon oral route of administration to the AUC upon intraarterial administration.

[3] abbreviates: Wistar (Crl:WI), rat, plasma, po, 3 mg/kg p.o., read-out: Mean AUC p.o.
Setting [4] is: Wistar (Crl:WI), rat, plasma, 3 mg/kg i.a., read-out: Mean AUC i.a.
[5] abbreviates: Wistar (Crl:WI), rat, plasma, intraarterial 3 mg/kg, N = 4-6.
Where [6] appears, read: Wistar (Crl:WI), rat, plasma, oral 3 mg/kg, N = 5.
[7] abbreviates: male, Wistar (Crl:WI), rat, plasma, 3 mg/kg, intraarterial 3 mg/kg, N = 4-6, read-out: Half-life (converted).
The mark [8] stands for this setting: male, Wistar (Crl:WI), rat, plasma, po, 3 mg/kg, oral 3 mg/kg, N = 5, read-out: Half-life (converted).
[9] abbreviates: male, Wistar (Crl:WI), rat, plasma, po, 3 mg/kg.

As usually defined, the AUC is the area under the concentration-time curve, a measure of exposure. A word on the AUC(0-inf): it is the area under the concentration-time curve extrapolated to infinity. Usually AUC(0-t) stands for the area under the concentration-time curve up to a stated or last time point. As usually defined, the Cmax is the maximum level reached in the sampled fluid or tissue. Broadly, the Tmax is the time at which the peak concentration occurs. For orientation: half-life means the time in which the quantity being followed falls by half. What is called bioavailability is dose-corrected exposure relative to a reference, in per cent. Take `NCc1c(-c2ccc(Cl)cc2Cl)ncn1Cc1ccsc1` [Example 130b, (4-(2,4-dichlorophenyl)-1-((thiophen-3-yl)methyl)-1H-imidazol-5-yl)methanamine]: in data set [1], the “LD50 Viability SY5Y” value came out at 0.17 mM and the “LD50 cytotox SY5Y” value stood at 0.28 mM. The AUC in data set [2] (setting [3]) came to 1.27 µg·h/mL. For the same compound, the AUC in data set [2] (setting [4]) turned out to be 1.68 µg·h/mL. Moreover, in data set [2] (setting [5]), the AUC(0-inf) was 2.47 ± 1.44 µg·h/mL, the AUC(0-t) was found to be 1.68 ± 0.516 µg·h/mL and the Cmax was 1.16 ± 0.47 µg/mL. In data set [2] (setting [6]), the AUC(0-inf) was 2.33 ± 1.18 µg·h/mL, the AUC(0-t) stood at 1.27 ± 0.618 µg·h/mL, the Cmax came out at 0.3 µg/mL and the Tmax was 0.55 ± 0.326 h. Further, the half-life in data set [2] (intraarterial 3 mg/kg, N = 4-6) is recorded as 4.00 ± 2.308 h. Further, in data set [2] (oral 3 mg/kg, N = 5), the AUC/Dose came to 0.78 ± 0.394 kg·µg·h/mL/mg. The half-life in data set [2] (setting [7]) is 5.5 h. For the same compound, the half-life in data set [2] (setting [8]) was 5.49 ± 1.52 h. In addition, in data set [2] (setting [9]), the bioavailability is 76%.

As for `NCc1c(-c2ccc(Cl)cc2Cl)ncn1Cc1ccccn1` [Example 39b], in data set [1], the “LD50 Viability SY5Y” value worked out at 0.29 mM and the “LD50 cytotox SY5Y” value was 0.60 mM. Also, the AUC in data set [2] (setting [3]) amounted to 0.14 µg·h/mL. For the same compound, in data set [2] (setting [4]), the AUC was 0.33 µg·h/mL. In addition, in data set [2] (setting [5]), the AUC(0-inf) turned out to be 0.41 ± 0.191 µg·h/mL, the AUC(0-t) amounted to 0.33 ± 0.148 µg·h/mL and the Cmax came to 0.28 ± 0.051 µg/mL. In data set [2] (setting [6]), the AUC(0-inf) came out at 0.29 ± 0.141 µg·h/mL, the AUC(0-t) is 0.14 ± 0.075 µg·h/mL, the Cmax was 0.08 µg/mL and the Tmax came to 0.4 ± 0.224 h. In addition, in data set [2] (intraarterial 3 mg/kg, N = 4-6), the half-life was found to be 1.57 ± 1.138 h. Also, the AUC/Dose in data set [2] (oral 3 mg/kg, N = 5) is 0.10 ± 0.047 kg·µg·h/mL/mg. For the same compound, the half-life in data set [2] (setting [7]) was 1.6 h. Also, in data set [2] (setting [8]), the half-life is 3.18 ± 2.13 h. In addition, the bioavailability in data set [2] (setting [9]) is 43%.

For the compound `NCc1c(-c2ccc(Cl)cc2Cl)ncn1Cc1ccccc1` [Example 24b, (1-benzyl-4-(2,4-dichlorophenyl)-1H-imidazol-5-yl)methanamine], in data set [1], the “LD50 Viability SY5Y” value is 0.11 mM and the “LD50 cytotox SY5Y” value was 0.19 mM. Further, the AUC in data set [2] (setting [3]) was determined as 0.39 µg·h/mL. Besides, in data set [2] (setting [4]), the AUC amounted to 0.51 µg·h/mL. Moreover, in data set [2] (setting [5]), the AUC(0-inf) came out at 0.64 ± 0.205 µg·h/mL, the AUC(0-t) was 0.51 ± 0.151 µg·h/mL and the peak concentration (Cmax) worked out at 0.44 ± 0.073 µg/mL. Moreover, in data set [2] (setting [6]), the AUC(0-inf) was determined as 0.65 ± 0.314 µg·h/mL, the AUC(0-t) stood at 0.39 ± 0.149 µg·h/mL, the highest concentration (Cmax) turned out to be 0.13 ± 0.036 µg/mL and the Tmax amounted to 0.75 ± 0.177 h. In addition, the AUC/Dose in data set [2] (intraarterial 3 mg/kg, N = 4-6) amounted to 0.18 ± 0.093 kg·µg·h/mL/mg. Further, the AUC/Dose in data set [2] (oral 3 mg/kg, N = 5) was determined as 0.22 ± 0.105 kg·µg·h/mL/mg. The half-life in data set [2] (setting [7]) is 2.94 ± 1.39 h. In data set [2] (setting [8]), the half-life is 4.83 ± 4.08 h. The bioavailability in data set [2] (setting [9]) was 76%.

`NCc1c(-c2ccc(Cl)cc2Cl)ncn1Cc1cccnc1` [Example 121b, (4-(2,4-dichlorophenyl)-1-((pyridin-3-yl)methyl)-1H-imidazol-5-yl)methanamine]: in data set [1], the “LD50 Viability SY5Y” value stood at 0.46 mM and the “LD50 cytotox SY5Y” value is given as 0.68 mM. Moreover, the AUC in data set [2] (setting [3]) was 0.23 µg·h/mL. In data set [2] (setting [4]), the AUC came to 0.44 µg·h/mL. Also, in data set [2] (setting [5]), the AUC(0-inf) was 0.63 ± 0.35 µg·h/mL, the AUC(0-t) is 0.44 ± 0.215 µg·h/mL and the Cmax is 0.4 ± 0.12 µg/mL. In addition, in data set [2] (setting [6]), the area under the curve AUC(0-inf) came to 0.35 ± 0.207 µg·h/mL, the AUC(0-t) is 0.23 ± 0.206 µg·h/mL, the Cmax stood at 0.11 ± 0.051 µg/mL and the time to peak (Tmax) worked out at 0.45 ± 0.274 h. The AUC/Dose in data set [2] (intraarterial 3 mg/kg, N = 4-6) was 0.21 ± 0.115 kg·µg·h/mL/mg. Besides, the AUC/Dose in data set [2] (oral 3 mg/kg, N = 5) was 0.12 ± 0.069 kg·µg·h/mL/mg. Moreover, the half-life in data set [2] (setting [7]) is 1.98 ± 0.994 h. Besides, in data set [2] (setting [8]), the half-life is 3.26 ± 3.87 h. For the same compound, the bioavailability in data set [2] (setting [9]) was 53%.
